Reference: patent US10034462B2, “Animal model of nash-induced hepatocellular carcinoma and methods for developing specific therapeutics” (THE REGENTS OF THE UNIVERSITY OF CALIFORNIA, priority 2015, dated 2018)

Tested on: WT HcPC-transplanted MUP-uPA mice
Assay: Effect of TNF antagonist on HFD-induced acceleration of tumor growth in HcPC-transplanted MUP-uPA mice
Assay type: in vivo, mouse
Conditions: HFD for 5 months; 5 mg/kg i.p. three times a week during the last 7 weeks, vs vehicle
Description: FIGS. 13A-13J are pictorial and graphical diagrams showing analyses of HcPC transplanted MUP-uPA mice. […] Data are means±S.D. (n=3 per group). […] FIGS. 13C-13F show no differences in the severity of NASH and TNF expression in the background liver of MUP-uPA mice transplanted with either WT and Tnfr1^−/− HcPC. Body weight (FIG. 13C), serum ALT (FIG. 13D), expression of TNF mRNA in non-tumor tissues (FIG. 13E), liver steatosis (FIG. 13F) and fibrosis (FIG. 13G) in MUP-uPA mice transplanted with either WT or Tnfr1^−/− HcPC and kept on LFD or HFD are shown (scale bar=100 μm). Data are expressed as means±S.D. (n=10-11 per group). *p<0.05. […] 5 mg/kg etanercept or vehicle control was i.p. injected three times a week during the last 7 weeks. Representative images of livers and maximal tumor sizes are shown. Data are expressed as means±S.E.M. (control, n=10; etanercept, n=12). […] HcPC-transplanted Tnfr1^−/−/MUP-uPA mice were divided into two groups that were fed with either LFD or HFD, and 5 months later tumorigenesis was assessed. Representative images of livers and maximal tumor sizes are shown. Data are expressed as means±S.E.M. (n=10 per group).
DEN (Sigma) was i.p. injected into male mice (25 mg/kg) on postnatal day 14. After 5 months, HcPCs were isolated as described and transplanted into 4 weeks old MUP-uPA (He et al., 2013). […]

**Q.** With Etanercept as the substance, how does the “HCC growth (maximal tumor size)” value read?
**A.** significantly suppressed
